In patent US20150018271A1, “HSP60 DERIVED PEPTIDES AND PEPTIDE ANALOGS FOR SUPPRESSION AND TREATMENT OF NON-AUTOIMMUNE DIABETES” (Yeda Research and Development Co. Ltd., priority 2012, published 2015):
Ends that are not written are not given here.

Legend:
[1] = system: male C57BL/N mice on high fat (60%) diet; settings: any of the DiaPep277 treatments (100-500 μg in intralipid SC or 100 μg in PBS IP), about 16 weeks, FIG. 1
Excerpt: Mice genetically prone to T2D (dp/dp or ob/ob strains, resistant to leptin), and/or healthy C57BL/6 mice induced to develop T2D by a high fat diet are used in vivo to assess the activity of hsp60 peptides and analogs in protecting against or treatment of T2D. […] In the fat diet model, the diet (for example TD.0811 of Harlan™, or D12492 of Research Diets Inc. containing 21% and 34.9% fat respectively) is initiated after weaning and the mice express T2D by 10 weeks of age.
In a typical trial, groups of T2D mice (10 mice per group) are treated early in the course of the disease (about 7-10 weeks of age). […]
Treatment with DiaPep277 or other hsp60 peptides or analogs, is performed once or several times a week with doses of 100-500 micrograms injected subcutaneously (with adjuvant such as intralipid) or IP, IM or IV (without adjuvant). Glucose tolerance, fasting glucose and fasting insulin levels are measured 1-2 months after onset of treatment.
In one specific in-vivo trial, 70 male C57BL/N mice were weighed, measured for blood glucose levels and divided into seven groups, 10 mice/group as following: […]
Animals of groups 2-7 were fed with 60% fat diet of from age of 5 weeks until termination of the trial. […] After about 16 weeks the trial was terminated and Hemoglobin A1C and C-peptide levels were measured using methods known in the art.

NOD mice = settings: cited from earlier work

Substance	animal appetite and weight [1]	gamma interferon secretion (NOD mice; after treatment)	p277-specific IL-4 and IL-10 secretion (NOD mice; after treatment)	p277-specific IgG1 antibodies (NOD mice; after treatment)	T-cell reactivity to beta cell antigens (NOD mice; subcutaneous administration)	development of diabetes (NOD mice; subcutaneous administration)
VLGGGVALLRVIPALDSLTPANED [DiaPep277]	did not change					
p277: specific peptide of human hsp60, one of the immunodominant epitopes in autoimmune diabetes; native cysteines at positions 6 and 11 (VLGGGCALLRCIPALDSLTPANED; p277 peptide; UniProt P10809 437-460, looked up, fragment)		decrease	increase	induced	down-regulated	prevented the development of diabetes
